Measured values taken from the METLIN SMRT retention time set (Domingo-Almenara et al. 2019).

experiment: gradient 5% acetonitrile 3 min, to 50% in 2 min, to 85% in 15 min, held 3 min, 100 µL/min; settings: column: Zorbax Extend-C18 2.1 x 50 mm; eluents: water / acetonitrile, 0.1% formic acid
Outline: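 Pure standards were analyzed in mixtures of ~100 molecules using HPLC coupled to a quadrupole time-of-flight mass spectrometer, in both positive and negative ionization mode. Separation used a Zorbax Extend-C18 column (2.1 × 50 mm, 1.8 μm) at 100 μL/min, with water and acetonitrile each containing 0.1% formic acid. Dead and dwell volumes were 40 μL and 900 μL, and data were collected over 3 months. Retention time was read from computationally picked adduct peaks, each inspected manually.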

| RP-LC retention time [s] | SMILES |
| --- | --- |
| 737 | Cc1cccc(C2CC(=O)c3cnc(N4CCN(c5ccccn5)CC4)nc3C2)c1 (centres undefined) |
| 830 | Cc1ccc(C)c(NC(=O)N2C[C@H](c3nc(-c4ccncc4)no3)[C@@H](C)C2)c1 |
| 764 | CCOC(=O)c1c(S(=O)(=O)N2CCC(C(=O)NCc3ccc(C)o3)CC2)c(C)n(C)c1C |
| 561 | CCN1CCN(CCNC(=O)CCC(=O)N2CC3CCCN3c3ccccc32)CC1 (centres undefined) |
| 919 | COc1ccc(N2CC(c3noc(-c4ccccc4)n3)CC2=O)cc1 (centres undefined) |
| 655 | COCCCNC(=O)CN1C(=O)C2CCCCN2c2ccc(C(=O)N(C)C)cc21 (centres undefined) |
| 778 | CNCCC(Oc1ccccc1C)c1ccccc1 (centres undefined) |
| 699 | COC(=O)c1cnc2nc(C)ccc2c1Nc1ccc(C)cc1C |
| 577 | O=C(NC1CC1)C1CCCN(C(=O)c2cc(-c3ccccn3)n[nH]2)C1 (centres undefined) |
| 1010 | CC1Oc2ccc(-c3csc(NC(=O)c4ccc(F)cc4)n3)cc2N(C)C1=O (centres undefined) |
| 607 | O=C(Cn1nc2c(cc1=O)CCCC2)Nc1nc(-c2cccnc2)cs1 |
| 758 | O=C(c1ccco1)N1CCN(C(=O)C2CN(S(=O)(=O)C3CC3)CC23CCCCC3)CC1 (centres undefined) |
| 688 | Cn1c(=O)n([C@@H]2CCN(C(=O)c3ccc4c(c3)OCO4)C2)c2ncccc21 |
| 654 | COc1ccc(C(=O)NCc2ccc3c(c2)OCO3)nn1 |
| 793 | CN1C(C(=O)Nc2ccccn2)=C(O)c2sc(Cl)cc2S1(=O)=O |
| 1190 | CC1CCN(S(=O)(=O)c2ccc3nc(N4CCN(c5ccc(F)cc5)CC4)ccc3c2)CC1 |
| 620 | Cn1cncc1C(=O)N1CC(F)(F)C[C@H]1c1nc(C2CC2)no1 |
| 890 | Cc1noc(-c2cc(=O)n(CC(=O)Nc3cccc(C)c3C)c3ccccc23)n1 |
| 590 | O=C([C@@H]1C[C@H](F)CN1C(=O)c1ccccc1)N1CCOCC1 |
| 601 | CC(C)Cc1noc(C2(F)CCN(S(=O)(=O)c3ccc(C(C)(C)C)cc3)CC2)n1 |
| 901 | Cc1ccc(Cl)c(NS(=O)(=O)c2cc3c(s2)CCN(C(=O)C2CC2)C3)c1 |
| 758 | CCc1ccc(CNC(=O)Cc2nnc(-c3ccc4ncccc4c3)o2)cc1 |

| RP-LC retention time [s] | SMILES |
| --- | --- |
| 665 | Cc1ccc(N2CCN(CC(O)c3ccc4c(c3)OCO4)CC2)cc1 (centres undefined) |
| 825 | OC(CN1CCC(Cc2ccc(F)cc2)CC1)c1ccc(Cl)cc1 (centres undefined) |
| 827 | COc1ccc(-c2noc(-c3nn(-c4ccc(C)cc4)ccc3=O)n2)cc1OC |
| 887 | COc1cccc(-c2ccc(=O)n(Cc3nc(-c4ccc(OC)c(OC)c4)no3)n2)c1 |
| 678 | CCOC(=O)c1ccc(NC(=O)CSc2ccc(N3CCCC(C(=O)NC4CC4)C3)nn2)cc1 (centres undefined) |
| 918 | Cc1ccc(-c2cc3c4nn(CC(=O)NC5CCCC5)c(=O)n4ccn3n2)cc1C |
| 952 | CC1=NS(=O)(=O)N(C)C=C1C(=O)OCc1nc(-c2ccc(F)cc2)no1 |
| 1000 | CCc1noc(-c2ccc(-n3cnc(C(=O)NC(C)c4ccc(F)cc4)c3)nc2)n1 (centres undefined) |
| 859 | CCOCCCNC(=O)c1c2c(cn(-c3ccc(F)cc3)c1=O)C(=O)CC(C)(C)C2 |
| 559 | c1cc(CN2CCCCC2c2nncn2CC2CC2)cs1 (centres undefined) |
| 818 | Cc1nn2c(CNS(=O)(=O)c3ccccc3)c(-c3ccccc3)nc2s1 |
| 720 | Nc1nc2c(C(F)(F)F)cccc2s1 |
| 718 | COCCc1nnc(NC(=O)C2c3ccccc3Oc3ccccc32)o1 |
| 621 | CN(C)c1ccc2c(c1)CN(C(=O)Cn1c(=O)oc3ccccc31)CCO2 |
| 867 | Cc1ccc(Cl)cc1N1CCN(C(=O)CN2C(=O)CN(C)C(=O)c3ccccc32)CC1 |
| 702 | CCCCN(C)c1ncc(C(=O)Nc2ccccc2)c(N)n1 |
| 787 | O=C(Nc1ccc(N2CCN(Cc3ccc(F)cc3)C2=O)nc1)c1ccsc1 |
| 699 | O=C(NCC1CC1)C1CCN(C(=O)c2ncn3c2COC(c2ccc(F)cc2)C3)CC1 (centres undefined) |
| 849 | COc1cccc(-n2c(N3CCCC(C(=O)NCc4ccc(C)o4)C3)nc3ccsc3c2=O)c1 (centres undefined) |
| 959 | Cc1ccc(-n2c(N3CCCC(C(=O)NC(C)c4ccc(F)cc4)C3)nc3ccsc3c2=O)cc1 (centres undefined) |
| 867 | CCc1noc(NC(C)=O)c1-c1ccc(C)c(S(=O)(=O)Nc2cccc(Cl)c2)c1 |
| 535 | Cc1ccn2cc(C(=O)NCCCN3CCCC3=O)nc2c1 |

| RP-LC retention time [s] | SMILES |
| --- | --- |
| 935 | COc1ccc(Cn2nc3ccc(S(=O)(=O)N4CCCCCC4)cn3c2=O)cc1 |
| 658 | Cc1cccc(NS(=O)(=O)c2cc3n(c2)CCCNC3=O)c1C |
| 572 | O=C(Nc1cccc(Cl)c1)N1CCc2[nH]cnc2C1c1ccncc1 (centres undefined) |
| 925 | COCCN1C(=O)c2ccccc2C(C(=O)NCc2ccc(Cl)cc2)C12CCCC2 (centres undefined) |
| 717 | COc1ccc(C)cc1NC(=O)C1CCN(c2cc(N3CCSCC3)ncn2)CC1 |
| 700 | COc1ccc(OC)c(CNC(=O)c2cnc(OC)nc2)c1 |
| 800 | CC(=O)NCCSc1c(-c2ccc(Cl)cc2)[nH]c2ccccc12 |
| 967 | CCOc1ccc(NC(=O)Cn2c(N3CCOCC3)nc(COC)cc2=O)cc1 |
| 729 | Cc1cccc(S(=O)(=O)Nc2cccn3ncnc23)c1 |
| 553 | O=C(NCCCN1CCOCC1)c1csc(-c2ccc(N3CCCC3)nc2)n1 |
| 1280 | Cc1nc2cc(-c3noc(/C=C/c4ccco4)n3)ccc2n(C2CCCC2)c1=O |
| 1010 | CSc1cccc(NC(=O)C2CCCN(c3ccc(=O)n(-c4cccc(Cl)c4)n3)C2)c1 (centres undefined) |
| 906 | Cc1ccc(-n2c(=O)c3c(cc(C)n3C)n(CC(=O)Nc3cc(C)ccc3C)c2=O)cc1 |
| 1030 | Cc1nc(-c2csc(S(=O)(=O)NCc3ccccc3Cl)c2)sc1C |
| 550 | CN1c2ccccc2Oc2nnc(N3CCN(c4ccccn4)CC3)cc21 |
| 586 | O=C(NCCN1CCOCC1)C1=C2CCCN2c2ccc(F)cc2S1(=O)=O |
| 944 | O=C(/C=C/c1ccccc1Cl)c1ccc(O)cc1 |
| 1170 | Cc1nn2c(ncc3c(=O)n(-c4nccs4)ccc32)c1-c1ccccc1 |
| 693 | C=C(C)CN1CCN(c2cc(C)nc3c(C)c(-c4ccc(Cl)cc4)nn23)CC1 |
| 642 | COC1CCC12CCN(C(=O)c1cnn(C)c1)CC2 (centres undefined) |
| 998 | COc1ccc(-c2noc(C3CC(=O)N(c4cccc(Cl)c4)C3)n2)cc1 (centres undefined) |
| 726 | CCOc1nccnc1NC1CCN(C(=O)c2ccc(C)s2)CC1 |

| RP-LC retention time [s] | SMILES |
| --- | --- |
| 736 | O=C(NCc1ccccc1Br)c1cn2ccccc2n1 |
| 695 | Cc1noc(C2CN(C(=O)Nc3ccc(F)cc3F)CC23CCOCC3)n1 (centres undefined) |
| 950 | CCc1noc2cc(-c3ccccc3)n(C)c(=O)c12 |
| 620 | CCCNc1cc(N2CCC(CCC(=O)N3CCN(C(=O)OCC)CC3)CC2)ncn1 |
| 811 | CCN1CCN(c2ccc(NC(=O)c3ccc(F)c(Cl)c3)cn2)C1=O |
| 656 | Cc1ccc(CNC(=O)c2ccc3ncnc(N4CCCC4)c3c2)cc1 |
| 845 | CCCNC(=O)CCc1nc2ccccc2n(CC(=O)Nc2cccc(CC)c2)c1=O |
| 810 | Cc1ccc(C(=O)N2CCC3(CC2)N=C(c2ccccc2)NO3)s1 |
| 610 | O=C(c1cscn1)N1CCc2nn(CC3CC3)c(=O)n2CC1 |
| 1050 | CCOC(=O)c1sc(NC(=O)COc2ccccc2Br)nc1C |
| 607 | Cc1nc(-c2cccs2)c(CC(=O)N2CCN(c3ccccn3)CC2)s1 |
| 669 | CCN(CC)CCNC(=O)C(C)n1c(=O)c(C(F)(F)F)nc2ccccc21 (centres undefined) |
| 998 | Cc1ccc(-c2nnc(-c3nn(C)c4c3CN(S(=O)(=O)c3cccc(C)c3)CC4)o2)cc1 |
| 984 | Cc1ccc(Cl)cc1N1CCN(C(=O)c2[nH]c(C)c(S(=O)(=O)N3CCOCC3)c2C)CC1 |
| 806 | CC(=O)N1CCc2cc(N3CC(C(=O)Nc4cccc(OC(F)(F)F)c4)CC3=O)ccc21 (centres undefined) |
| 868 | CC(C)c1nc(N2CCN(c3ccccc3)CC2)ncc1C(=O)O |
| 741 | Cc1ccc(NC(=O)CN2CCc3[nH]c4c(C)c(Cl)ccc4c(=O)c3C2)c(Cl)c1 |
| 602 | O=C(C1CCC(=O)N1S(=O)(=O)c1ccccc1)N1CCN(c2ccccn2)CC1 (centres undefined) |
| 729 | CCCNC(=O)Cn1c(=O)c2cccn2c2ccc(F)cc21 |
| 937 | COc1ccccc1-c1nnc(-c2ccc(OC)c(S(=O)(=O)N3CCCCC3)c2)o1 |
| 856 | COc1ccccc1N1CCN(C(=O)c2cn(-c3cc(N4CCCCC4)ncn3)cn2)CC1 |
| 961 | Cc1ccc(-n2c(N3CCCC(C(=O)NCC(C)c4ccccc4)C3)nc3ccsc3c2=O)cc1 (centres undefined) |

| SMILES | RP-LC retention time [s] |
| --- | --- |
| O=C(c1ccsc1)N1[C@H]2CC[C@@H]1c1cnc(-c3ccc(F)cc3)nc1C2 | 952 |
